Source: ChEMBL document CHEMBL2028040, “Malaria Box”

Key:
[1] = MMV: Cytotoxicity against human fibroblasts (MRC-5) cells.; settings: MRC-5 cells (human fibroblasts)
[2] = tested on: Leishmania infantum; experiment: MMV: Inhibition of Leishmania infantum (MHOM/MA/BE/67) in vitro.; assay type: functional, organism-based
[3] = tested on: Trypanosoma cruzi; experiment: MMV: Inhibition of Trypanosoma cruzi (Tulahuen C4 LacZ) (Chagas in vitro).; assay type: functional, organism-based
[4] = tested on: Trypanosoma brucei rhodesiense; experiment: MMV: Inhibition of Trypanosoma brucei rhodesiense (STIB 900) (HAT in vitro).; assay type: functional, organism-based
[5] = tested on: Plasmodium falciparum; experiment: MMV: Inhibition of Plasmodium falciparum 3D7 (EC50).; assay type: functional, organism-based
[6] = tested on: Trypanosoma brucei brucei; experiment: MMV: Inhibition of Trypanosoma brucei brucei (Squib 427) (HAT in vitro).; assay type: functional, organism-based
[7] = tested on: Plasmodium falciparum; experiment: MMV: Inhibition of Plasmodium falciparum K1 (EC50).; assay type: functional, organism-based
[8] = tested on: Plasmodium falciparum; experiment: MMV: Inhibition of Plasmodium falciparum 3D7 at 5uM compound concentration.; assay type: functional

Compound	IC50 [1] [µM]	IC50 [2] [µM]	IC50 [3] [µM]	IC50 [4] [µM]	EC50 [5] [µM]	IC50 [6] [µM]	EC50 [7] [µM]	inhibition at 5 µM [8] [%]
O=C(Nc1ccc(Cl)c(Cl)c1)Nc1ccc(Cl)c(Cl)c1	> 32	10.6	3.82	2.17	1.16	2.5	1.26	96
Cc1ccc(-c2cc3c(nn2)-c2ccccc2C3=O)cc1	> 32	> 32	> 32	15	0.0944	> 32	0.165	99
O=C1c2ccccc2-c2nnc(-c3ccc(Br)cc3)cc21	> 32	> 32	> 32	> 32	1.07	> 32	0.798	99
N=c1n(CCN2CCCCC2)c2ccccc2n1CC(O)c1cccc(Br)c1 (stereo not drawn)	27.6	4	4.17	1.01	0.893	2.77	1.4	98
COc1cccc(O)c1CN1CCC2(CCCN(Cc3ccc(F)cc3)C2)C1 (stereo not drawn)	> 32	10.1	12.3	1.85	0.53	4.23	0.375	95
CCOC(=O)C1=C(C)N=c2sc(=Cc3cc(Cl)ccc3O)c(=O)n2C1c1ccc(OC)cc1 (stereo not drawn)	16.6	16.2	14.1	4.15	0.489	14.2	0.49	97
COc1ccc(-c2nc(NC(=O)CS(=O)(=O)c3ccc(F)cc3)sc2C)cc1	> 32	> 32	16.8	16.1	0.448	16	1.28	97
COc1cccc(NC(=O)[C@H](C(C)C)n2c(=O)[nH]c3ccccc3c2=O)c1	> 32	5.66	9.22	1.05	0.139	4.32	0.203	99
CCOC(=O)c1cn(CC)c2cc(N(C)CCc3ccc(OC)c(OC)c3)c(F)cc2c1=O	> 32	> 32	> 32	> 32	0.205	> 32	0.436	99
COc1cccc(NC(=O)Cn2c(C)c(C#N)c3ccccc32)c1	> 32	> 32	> 32	20.2	1.09	> 32	1.48	95
CCC(c1ccccc1)c1nn2c(-c3cccs3)nnc2s1 (stereo not drawn)	> 32	12	4.09	13.1	0.259	16.1	0.916	99
O=C(CCl)NCCOc1ccc(Cl)cc1Cl	16.2	10.2	19.1	6.83	0.555	11.6	1	94
COc1ccc(C(=O)NC(c2ccc(Cl)cc2Cl)c2cc(Cl)c3cccnc3c2O)cc1 (stereo not drawn)	7.79	4.76	3.85	4.09	0.513	3.94	0.525	96
CCCCNc1nc(NC(C)(C)C)nc(NC(C)(C)C)n1	> 32	2.97	9.19	2	0.706	1.33	0.705	98
CCOC(=O)c1c(NC(=O)c2ccccc2)sc2c(O)c(CN(CC)CC)ccc12	> 32	16.2	> 32	> 32	0.205	> 32	0.114	96
Cc1cc(Nc2ccc(C)c(Cl)c2)n2nc(C(F)(F)F)nc2n1	> 32	> 32	22.9	15.9	0.00671	> 32	0.0141	98
Nc1ccc(-c2nc3cc(Cc4ccc5[nH]c(-c6ccc(N)cc6)nc5c4)ccc3[nH]2)cc1	11.4	> 32	4.54	2.27	1.42	1.89	1.29	100
CC(=O)c1sc(NC(=O)Nc2ccc(C)cc2C)nc1C	> 32	> 32	> 32	> 32	0.536	> 32	0.502	64

Compound	IC50 [1] [µM]	IC50 [2] [µM]	IC50 [3] [µM]	IC50 [4] [µM]	EC50 [5] [µM]	IC50 [6] [µM]	EC50 [7] [µM]	inhibition at 5 µM [8] [%]
Cn1c(=O)n(C)c2cc(CNCCNc3ccnc4cc(Cl)ccc34)ccc21	> 32	17.3	16.9	0.419	0.545	11.5	1.51	90
COc1ccccc1CNC(=O)CCn1c(=O)[nH]c2ccccc2c1=O	> 32	> 32	> 32	> 32	0.0726	> 32	0.19	64
OC(Cn1nnc2ccccc21)Cn1c2ccc(Br)cc2c2cc(Br)ccc21 (stereo not drawn)	> 32	> 32	> 32	> 32	1.26	> 32	1.23	98
CCCCNCC(O)(c1ccc(Cl)cc1)c1ccc(Cl)cc1	> 32	13.6	14.3	3.86	0.843	3.27	0.525	97
Oc1c(C(Nc2ccccn2)c2cccc(Oc3ccccc3)c2)ccc2cccnc12 (stereo not drawn)	3.89	1	1.05	0.972	1.01	1.01	1.07	97
CCOC(=O)c1cn(CC)c2cc(N3CCCCC3)c(F)cc2c1=O	> 32	> 32	> 32	> 32	0.119	> 32	0.259	100
CCCc1cc(O)c2c3c(c(=O)oc2c1)CN(C)CC3	> 32	> 32	> 32	> 32	0.146	> 32	0.0807	97
OC(CNC1CCCCC1)Cn1c2ccc(I)cc2c2cc(I)ccc21 (stereo not drawn)	4.03	1.59	0.902	0.784	0.466	0.877	0.298	97
CCOc1ccc(-c2nonc2NC(=O)c2cccc(C)c2)cc1OCC	> 32	> 32	> 32	> 32	0.117	> 32	0.127	86
COc1cccc(C(=O)NC(c2ccc(C)cc2)c2cc(Cl)c3cccnc3c2O)c1 (stereo not drawn)	> 32	> 32	3.77	4.06	0.393	3.49	0.527	97
COc1ccc2c(=O)cc(C(Cl)(Cl)Cl)oc2c1	7.58	16.2	0.432	> 32	0.52	16.9	0.55	94
CCOc1ccc(/C=C/c2nc(=O)c3ccccc3o2)cc1	> 32	> 32	17.9	30.5	0.56	> 32	0.893	95
O=C(Nc1ccc(F)c(Cl)c1)Nc1ccc(Cl)c(Cl)c1	4.51	16.2	3.7	3.33	2.06	3.94	2.13	95
COc1ccc(CN2CCN(Cc3ccccc3)CC2)c(O)c1	> 32	> 32	> 32	> 32	1.08	> 32	0.789	96
CCCCCCc1cc(O)c2c3c(c(=O)oc2c1)CCC(C)C3 (stereo not drawn)	> 32	> 32	> 32	4.21	0.534	4.18	0.467	96
CC1CC2=C(CC1CNCCCN(C)C)C(C)(C)CCC2 (stereo not drawn)	4.15	3.01	1.08	< 0.125	1.01	< 0.125	1	98
c1ccc(Cn2c(N=Nc3c(Nc4ccccc4)ccc4ccccc34)nc3ccccc32)cc1	0.389	3.01	0.136	0.217	0.0368	0.88	0.048	96
Cc1c(C)n(CC(O)CNC2CCCCC2C)c2ccccc12 (stereo not drawn)	> 32	> 32	> 32	1.01	0.769	3.84	0.438	96
